Reference: patent US20240043842A1, “MUSCLE RETENTION IN AGING AND DUCHENNE MUSCULAR DYSTROPHY (DMD) THROUGH S1P INHIBITION” (Washington University, priority 2022, published 2024)

Assays:
C2C12 cells [1] = experiment: Western blot of phosphorylated Smad 2 and AKT in TGF-β1-treated C2C12 cells; format: cell-based, murine; details: TGF-β1-treated versus untreated cells, whole-cell lysates
Description: (§1) C2C12 cells were plated onto 6-well plates at a 2×10^5 density and 24 h later transfected with either negative control siRNA (Negative Control No. 1 siRNA, Life Technologies) or custom siRNAs targeting S1P (Silencer Select siRNAs, Life Technologies) using Lipofectamine RNAiMAX as per manufacturer's instructions. After 48 h, cells were either harvested for gene expression analysis or differentiated with DMEM supplemented with 2% horse serum. Two days after differentiation, cells were harvested for gene expression analysis. For TGF-β1 treatment studies, three days post-differentiation, cells were treated with 50 ng/ml TGF-β1 (R&D) for 5 h then harvested for downstream endpoints.
Skeletal muscle whole protein lysates were generated by homogenizing tissues in lysis buffer (20 mM Tris, 15 mM NaCl, 1 mM EDTA, 0.2% NP-40, and 10% glycerol) supplemented with 2× Protease Complete cocktail tablet (Roche) and 1× Phosphatase Inhibitors (Roche, Mannheim, Germany) with stainless steel beads in a TissueLyzer II (Qiagen). Protein lysates were rotated for 45 min at 4° C., followed by centrifugation at 15,000×g for 15 min at 4° C. Protein was quantified by bicinchoninic acid assay (BCA, Pierce Biotechnology), equal amounts of protein were resolved on a 4-15 SDS-PAGE gradient gel (Bio-Rad), and transferred to PVDF-FL membrane (MilliporeSigma). […]

C2C12 cells [2] = experiment: MSS51 expression by qPCR in C2C12 cells treated with vehicle or TGF-β1; format: cell-based, murine; details: scrambled and S1P-depleted C2C12 cells, 50 ng/ml for 5 h, versus vehicle
Description: Total RNA was isolated from C2C12 cells, skeletal muscle, heart, adipose, kidney, and liver with RNA STAT-60 (Tel-Test Inc) as per manufacturer's instructions. For tissues, RNA was isolated by disrupting tissue in RNA STAT-60 using […] (Qiagen) and a TissueLyser II (Qiagen). RNA was reverse transcribed into cDNA using the High-Capacity cDNA Reverse Transcription Kit (Applied Biosystems). Quantitative real-time PCR was performed using Power SYBR green (Applied Biosystems) and transcripts quantified on an ABI QuantiStudio 3 sequence detection system (Applied Biosystems). Data was normalized to 36B4 expression, unless otherwise noted, and results analyzed using the 2^−ΔΔCt method and reported as relative units to controls.
as §1, with “For TGF-β1 treatment studies, three days post-differentiation, cells were treated with 50 ng/ml TGF-β1 (R&D) for 5 h then harvested for downstream endpoints.” left out

Substance: TGF-β1: recombinant TGF-β1 (R&D) used to treat C2C12 cells
- Smad 2 phosphorylation induced by TGF-β1 (C2C12 cells [1]): induced
- MSS51 expression in the presence of TGF-β1 (C2C12 cells [2]): increased
